# From PubChem BioAssay AID328 (DTP/NCI, 2004)
# Several values for one entry are separate records, joined by “and”; a condition that tells them apart may be missing. Equal entries are not always repeated. Inconclusive results and toxic doses are left out.
# Test system: BDF1 mice, P388 leukemia ip, median survival T/C
# Experiment: NCI In Vivo Anticancer Drug Screen. Data for tumor model P388 Leukemia (intraperitoneal) in B6D2F1 (BDF1) mice
# Conditions: endpoint: median survival time, higher = longer survival
# Method in brief: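 Read-out is survival of treated animals expressed relative to the vehicle group, as a T/C ratio.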
# [1] = dose: 12.5 mg/kg/injection, schedule: Q04DX003 (ip), vehicle: Klucel (hydroxypropylcellulose) (HPC)
# [2] = dose: 18.0 mg/kg/injection, schedule: Q04DX003 (ip), vehicle: Klucel (hydroxypropylcellulose) (HPC)
# [3] = dose: 60.0 mg/kg/injection, schedule: Q04DX003 (ip), vehicle: Klucel (hydroxypropylcellulose) (HPC)
# [4] = dose: 90.0 mg/kg/injection, schedule: Q04DX003 (ip), vehicle: Klucel (hydroxypropylcellulose) (HPC)
# [5] = dose: 25.0 mg/kg/injection, schedule: Q04DX003 (ip), vehicle: saline with Tween-80
# [6] = dose: 50.0 mg/kg/injection, schedule: Q04DX003 (ip), vehicle: saline with Tween-80
# [7] = dose: 100.0 mg/kg/injection, schedule: Q04DX003 (ip), vehicle: saline with Tween-80
# [8] = dose: 25.0 mg/kg/injection, schedule: Q01DX009 (ip), vehicle: saline
# [9] = dose: 200.0 mg/kg/injection, schedule: Q04DX003 (ip), vehicle: saline with Tween-80
# [10] = dose: 400.0 mg/kg/injection, schedule: Q04DX003 (ip), vehicle: saline with Tween-80
# [11] = dose: 50.0 mg/kg/injection, schedule: Q01DX009 (ip), vehicle: saline with Tween-80
# [12] = dose: 100.0 mg/kg/injection, schedule: Q01DX009 (ip), vehicle: saline with Tween-80
# [13] = dose: 200.0 mg/kg/injection, schedule: Q01DX009 (ip), vehicle: saline with Tween-80
# [14] = dose: 100.0 mg/kg/injection, schedule: Q04DX003 (ip), vehicle: other
# [15] = dose: 200.0 mg/kg/injection, schedule: Q04DX003 (ip), vehicle: other
# [16] = dose: 400.0 mg/kg/injection, schedule: Q04DX003 (ip), vehicle: other
# [17] = dose: 50.0 mg/kg/injection, schedule: Q01DX009 (ip), vehicle: saline
# [18] = dose: 100.0 mg/kg/injection, schedule: Q01DX009 (ip), vehicle: saline
smiles,measurement,setting,value
C/C(=N/NC(=O)c1ccccc1)c1ccc(Cl)cc1Cl,T/C,"dose: 3.12 mg/kg/injection, schedule: Q04DX003 (ip), vehicle: Klucel (hydroxypropylcellulose) (HPC)",110 % of control
same,T/C,"dose: 6.25 mg/kg/injection, schedule: Q04DX003 (ip), vehicle: Klucel (hydroxypropylcellulose) (HPC)",105 % of control
same,T/C,[1],100 % of control
same,T/C,"dose: 18.0 mg/kg/injection, schedule: Q01DX009 (ip), vehicle: Klucel (hydroxypropylcellulose) (HPC)",100 % of control
same,T/C,[2],100 % of control
same,T/C,"dose: 28.0 mg/kg/injection, schedule: Q01DX009 (ip), vehicle: Klucel (hydroxypropylcellulose) (HPC)",104 % of control
same,T/C,"dose: 28.0 mg/kg/injection, schedule: Q04DX003 (ip), vehicle: Klucel (hydroxypropylcellulose) (HPC)",100 % of control
same,T/C,"dose: 40.0 mg/kg/injection, schedule: Q04DX003 (ip), vehicle: Klucel (hydroxypropylcellulose) (HPC)",104 % of control
same,T/C,[3],110 % of control
same,T/C,[4],110 % of control
O=[N+]([O-])/C=C/c1cccc(F)c1,T/C,"dose: 12.5 mg/kg/injection, schedule: Q04DX003 (ip), vehicle: saline with Tween-80",107 % of control
same,T/C,[5],98 % of control
same,T/C,[6],93 % of control
same,T/C,[7],87 % of control
O=NNc1ccccn1,T/C,"dose: 3.12 mg/kg/injection, schedule: Q01DX009 (ip), vehicle: saline",105 % of control
same,T/C,"dose: 12.5 mg/kg/injection, schedule: Q01DX009 (ip), vehicle: saline",214 % of control
same,T/C,[8],112 % of control
CC(=O)c1ccccc1NC=O,T/C,[7],100 % of control
same,T/C,[9],104 % of control
same,T/C,[10],108 % of control
COC1=C(N2CC2)C(=O)C(OC)=C(N2CC2)C1=O,T/C,"dose: 0.5 mg/kg/injection, schedule: Q01DX009 (ip), vehicle: Klucel (hydroxypropylcellulose) (HPC)",217 % of control
same,T/C,"dose: 0.5 mg/kg/injection, schedule: Q01DX009 (ip), vehicle: saline",162 % of control
same,T/C,"dose: 0.8 mg/kg/injection, schedule: Q04DX003 (ip), vehicle: saline with Tween-80",170 % of control
same,T/C,"dose: 1.0 mg/kg/injection, schedule: Q01DX009 (ip), vehicle: Klucel (hydroxypropylcellulose) (HPC)",234 % of control
same,T/C,"dose: 1.0 mg/kg/injection, schedule: Q01DX009 (ip), vehicle: saline with Tween-80",179 % of control
same,T/C,"dose: 1.0 mg/kg/injection, schedule: Q01DX009 (ip), vehicle: saline",201 % of control
same,T/C,"dose: 1.8 mg/kg/injection, schedule: Q04DX003 (ip), vehicle: saline with Tween-80",154 % of control
same,T/C,"dose: 2.0 mg/kg/injection, schedule: Q01DX009 (ip), vehicle: Klucel (hydroxypropylcellulose) (HPC)",285 % of control
same,T/C,"dose: 2.0 mg/kg/injection, schedule: Q01DX009 (ip), vehicle: saline with Tween-80",91 % of control
same,T/C,"dose: 2.0 mg/kg/injection, schedule: Q01DX009 (ip), vehicle: saline",252 % of control
same,T/C,"dose: 2.6 mg/kg/injection, schedule: Q04DX003 (ip), vehicle: saline with Tween-80",173 % of control
same,T/C,"dose: 4.0 mg/kg/injection, schedule: Q01DX009 (ip), vehicle: Klucel (hydroxypropylcellulose) (HPC)",326 % of control
same,T/C,"dose: 4.0 mg/kg/injection, schedule: Q01DX009 (ip), vehicle: saline",92 % of control
same,T/C,"dose: 4.0 mg/kg/injection, schedule: Q04DX003 (ip), vehicle: saline with Tween-80",165 % of control
same,T/C,"dose: 6.0 mg/kg/injection, schedule: Q04DX003 (ip), vehicle: saline with Tween-80",200 % of control
NC(C(=O)O)C(O)c1cnc[nH]1 (stereo not drawn),T/C,"dose: 25.0 mg/kg/injection, schedule: Q01DX009 (ip), vehicle: water",101 % of control
same,T/C,"dose: 50.0 mg/kg/injection, schedule: Q01DX009 (ip), vehicle: water",96 % of control
same,T/C,"dose: 100.0 mg/kg/injection, schedule: Q01DX009 (ip), vehicle: water",97 % of control
same,T/C,"dose: 200.0 mg/kg/injection, schedule: Q01DX009 (ip), vehicle: water",93 % of control
same,T/C,"dose: 400.0 mg/kg/injection, schedule: Q01DX009 (ip), vehicle: water",97 % of control
O=C(O)CCS(=O)(=O)CCC(=O)O,T/C,[11],100 % of control
same,T/C,[12],100 % of control
same,T/C,[13],100 % of control
O=NN(CCCl)C(=O)NC1CC2CCC1C2 (stereo not drawn),T/C,"dose: 33.0 mg/kg/injection, schedule: Q04DX003 (ip), vehicle: saline with Tween-80",272 % of control
same,T/C,"dose: 75.0 mg/kg/injection, schedule: Q04DX003 (ip), vehicle: saline with Tween-80",113 % of control
C1CC2C(CCCC23OCCO3)C2(C1)OCCO2 (stereo not drawn),T/C,"dose: 50.0 mg/kg/injection, schedule: Q01DX009 (ip), vehicle: Klucel (hydroxypropylcellulose) (HPC)",113 % of control
same,T/C,"dose: 100.0 mg/kg/injection, schedule: Q01DX009 (ip), vehicle: Klucel (hydroxypropylcellulose) (HPC)",86 % of control
same,T/C,[14],100 % of control
same,T/C,"dose: 200.0 mg/kg/injection, schedule: Q01DX009 (ip), vehicle: Klucel (hydroxypropylcellulose) (HPC)",95 % of control
same,T/C,[15],95 % of control
same,T/C,[16],100 % of control
O=[N+]([O-])c1ccc(NS(=O)(=O)c2ccc(Cl)c(Cl)c2Cl)c([N+](=O)[O-])c1,T/C,"dose: 25.0 mg/kg/injection, schedule: Q01DX009 (ip), vehicle: saline with Tween-80",96 % of control
same,T/C,[11],105 % of control
same,T/C,[12],102 % of control
Cn1c([N+](=O)[O-])cnc1/C=N/N1CCN(/N=C/c2ncc([N+](=O)[O-])n2C)CC1,T/C,[11],101 % of control
same,T/C,[12],113 % of control
same,T/C,[13],94 % of control
CCCC1=NNc2n[nH]c(=S)n2N1,T/C,[1],100 % of control
same,T/C,"dose: 25.0 mg/kg/injection, schedule: Q04DX003 (ip), vehicle: Klucel (hydroxypropylcellulose) (HPC)",91 % of control
same,T/C,"dose: 50.0 mg/kg/injection, schedule: Q04DX003 (ip), vehicle: Klucel (hydroxypropylcellulose) (HPC)",91 % of control
CCN(C(C)C)C(C)C,T/C,[5],100 % of control
same,T/C,[6],100 % of control
same,T/C,[7],100 % of control
COc1cc(/C=N/NC(=O)c2ccccc2)cc(OC)c1OC,T/C,[12],95 % of control
same,T/C,[7],109 % of control
same,T/C,[13],100 % of control
same,T/C,[9],104 % of control
same,T/C,"dose: 400.0 mg/kg/injection, schedule: Q01DX009 (ip), vehicle: saline with Tween-80",95 % of control
same,T/C,[10],90 % of control
COc1ccc(OC)c2c1C(=O)CC2C (stereo not drawn),T/C,[8],105 % of control
same,T/C,[17],91 % of control
same,T/C,[18],98 % of control
CN(C)CCC12CC(=O)CCC1C=Cc1ccc(O)c(O)c12 (stereo not drawn),T/C,[8],100 % of control
same,T/C,[17],95 % of control
same,T/C,[18],91 % of control
Cn1cnc([N+](=O)[O-])c1[Se]c1ncnc2c1c(C#N)cn2C1OC(CO)C(O)C1O (stereo not drawn),T/C,"dose: 6.25 mg/kg/injection, schedule: Q04DX003 (ip), vehicle: saline",93 % of control
same,T/C,"dose: 12.5 mg/kg/injection, schedule: Q04DX003 (ip), vehicle: saline",119 % of control
same,T/C,"dose: 25.0 mg/kg/injection, schedule: Q04DX003 (ip), vehicle: saline",102 % of control
NC(Cc1ccc(O)cc1)C(=O)N/N=C/c1ccc(N(CCCl)CCCl)cc1 (stereo not drawn),T/C,[2],108 % of control
same,T/C,"dose: 26.0 mg/kg/injection, schedule: Q04DX003 (ip), vehicle: Klucel (hydroxypropylcellulose) (HPC)",116 % of control
same,T/C,[3],165 % of control
same,T/C,[4],169 % of control
same,T/C,"dose: 100.0 mg/kg/injection, schedule: Q04DX003 (ip), vehicle: Klucel (hydroxypropylcellulose) (HPC)",165 % of control
same,T/C,"dose: 133.0 mg/kg/injection, schedule: Q04DX003 (ip), vehicle: Klucel (hydroxypropylcellulose) (HPC)",170 % of control
same,T/C,"dose: 200.0 mg/kg/injection, schedule: Q04DX003 (ip), vehicle: Klucel (hydroxypropylcellulose) (HPC)",192 % of control and 204 % of control
same,T/C,"dose: 300.0 mg/kg/injection, schedule: Q04DX003 (ip), vehicle: Klucel (hydroxypropylcellulose) (HPC)",166 % of control
Cc1ccc(S(=O)(=O)Nc2ccccc2SSc2ccccc2NS(=O)(=O)c2ccc(C)cc2)cc1,T/C,[7],100 % of control
same,T/C,[9],110 % of control
same,T/C,[10],110 % of control
COc1ccc(C(C#N)CC(=O)c2ccc(OCc3ccccc3)c(OC)c2)cc1OC (stereo not drawn),T/C,"dose: 50.0 mg/kg/injection, schedule: Q04DX003 (ip), vehicle: other",96 % of control
same,T/C,[14],88 % of control
same,T/C,[15],87 % of control
same,T/C,[16],90 % of control
